Reference: US20240285594A1, “COMPOSITIONS AND METHODS FOR TREATING PAIN IN ANIMALS” (North Carolina State University, priority 2023, published 2024)
Values joined by “and” are separate entries in the source; they are usually repeats but may differ in a detail not shown here. Identical values can stand only once. “Also recorded” adds a separate entry of the source. Like-named read-outs stand apart in the source and are kept apart here.

Legend:
[1] = Cross-over plasma pharmacokinetics of intranasal versus intramuscular flunixin;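 note: grower pigs about 8 weeks old weighing 18.0-22.0 kg, randomized cross-over of both routes separated by a 5-day washout, blood taken via jugular vein catheter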
Procedure: Six female Yorkshire cross grower pigs approximately 8 weeks of age with no history of flunixin administration in a 30-day period were sourced from a production farm and enrolled in the study. The pigs were determined to be healthy by veterinary physical examination and pigs initially weighed between 18.0-22.0 kg. The pigs were individually housed in climate-controlled rooms with a 12:12 light dark cycle at the North Carolina State University College of Veterinary Medicine to prevent cross contamination between pigs and damage to jugular catheters. The pens had non-slip flooring, allowed the pigs to move freely, provided enrichment, and were cleaned at least twice daily. The pigs had ad libitum access to water via a nipple drinker and were fed 0.5 quarts of Nature's Match twice daily. […] From the time of arrival until the end of the study, the pigs were monitored at least twice daily for general appearance, attitude, appetite, and wellbeing.
To facilitate jugular catheter placement, the pigs were sedated with Telazol®, reconstituted with ketamine and xylazine as previously described, intubated, and maintained on gas isoflurane anesthesia. A 22-gauge, 10 cm intravenous catheter (MILA, International, Inc., Florence, KY, USA) was placed into the jugular vein using sterile technique. It was sutured in place with 3-0 nylon and covered in Ioban™ (3M, St. Paul, MN, USA) to prevent damage. The pigs wore custom jackets throughout the study to protect the catheters and an extension set was attached to allow for easy catheter access and restraint-free blood collection.
All pigs were randomized to determine the first administration route. Group 1 (n=3 pigs) and Group 2 (n=3 pigs) were used in a cross-over design and received 2.2 mg/kg flunixin (Banamine®-S, Merck Animal Health, Madison, NJ, USA) by either the IM or IN route. Following a 5-day washout period, the pigs were administered 2.2 mg/kg flunixin via the opposite route. IN administration was completed using a MAD600 MADgic laryngo-tracheal mucosal atomization device (Teleflex Medical, Morrisville, NC, USA). The luer lock syringe was attached to this device and drug was placed into the nostril. Before administration, 0.22 mL of the drug was added to the device to account for dead space volume. After the IN dose, pigs were encouraged to keep their heads raised for approximately 10 seconds to prevent leakage of the drug out of the nasal cavity. Intramuscular administration was performed in the omotransversarius muscle using a 20G needle.
Blood samples were collected at 0 (pre-treatment), 0.16, 0.33, 0.5, 0.75, 1, 1.5, 2, 3, 4, 6, 8, 12, 18, 24, 36, 48, and 60 hours post treatment. To avoid heparin contamination in samples, at least 1 mL of blood was collected as a purge sample before 1-2 mL of blood was collected and placed into lithium heparin tubes (BD Vacutainer, Franklin Lakes, NJ, USA). The purge blood was injected back into the catheter before the catheter was flushed with 3-4 mL of heparinized saline to prevent coagulation. The blood tubes were placed on ice for no more than 1 hour before they were processed. Plasma was separated by centrifugation at 3500×g for 10 minutes at 4° C., equally split between two cryovials, mixed, and stored at −80° C. until analysis.
To prepare samples, 100 μL of plasma was pipetted into a clean borosilicate glass tube (disposable culture tubes, CWR). To pretreat the plasma, 500 μL of 4% phosphoric acid prepared in water was added to each tube. Solid phase extraction was performed on an oasis prime HLB 96 well μElution plate (Waters Corporation, Milford, MA, USA). The plate was prepared by conditioning the plate with 500 μL of methanol followed by 500 μL of ultrapure water.

[2] = IM flunixin in pigs; cited from earlier work
[3] = cited from earlier work; for mitigation of pain associated with castration (and tail docking): earlier published studies in pigs, route as in the sentence
[4] = IM flunixin 2.2 mg/kg compared to ketoprofen 3 mg/kg and meloxicam 0.4 mg/kg; swine; cited from earlier work
cortisol = assay: Serum cortisol after surgical or sham castration of piglets (Part I, physiological assessment); type: in vivo
Procedure: A total of 197 Large White×Duroc cross male piglets from 35 litters were enrolled in the study (Table 1). Piglets were individually identified using ear tags (Allflex Global Piglet ear tags, Allflex Livestock Intelligence, Madison, WI), weighed and randomly allocated to one of eight treatment groups (FIG. 1).
Lidocaine was buffered by mixing 2 ml of 8.4% Sodium Bicarbonate to 20 ml of 2% lidocaine HCl injectable solution to achieve a pH of 6.8 (Lidocaine Hydrochloride, Covetrus, Dublin, Ohio, US). […] Piglets were held by both rear legs by one caretaker with the abdomen facing the individual administrating treatment. Buffered lidocaine was injected intra-inguinally (Picture 1) by a second caretaker using a ½ inch needle (Ideal® D3 20 Gauge, Neogen, Lansing, MI) inserted into a syringe (Prima Tech® 2 cc Bottle Mount Vaccinator, Prima Tech USA, Kenansville, NC). A total of 1.5 ml of buffered lidocaine per injection site was administered intramuscularly (IM) into each inguinal canal (left and right) at a 40-degree angle 5-7 cm from the scrotum and 2-3 cm from the abdominal wall. Piglets enrolled in the control treatment (C, S, CF, SF−T1: (C) Castration plus physiological saline (IM and IN; n=25); T2: (S) Sham plus physiological saline (IM and IN; n=25); T5: (CF) Castration plus flunixin (IN; n=25); T6: (SF) Sham plus flunixin (IN; n=24)) were handled in an identical manner and 1.5 ml of sterile saline was injected in the same two locations as described previously.
Immediately following intra-inguinal injection, piglets enrolled in the FM treatment groups were held in sternal recumbency by one individual and 2.2 mg/kg (Banamine®, Merck Animal Health, Madison, NJ, US) was administered in one nostril using was a MAD® nasal intranasal mucosal atomization device (Telefex Incorporated, Wayne, PA, US) attached to a Prima Tech® 0.5 cc bottle mount vaccinator. The same individual administered the treatment by gently holding the piglet's snout using their non-dominant hand to steady the head and administered the drug with the other hand. Piglets in the control group were handled in the same manner in an equivalent volume of 0.2 ml of sterile saline was administered as described above.
Castration was performed by one trained caretaker from the farm. Piglets were picked up, individually held by both hind legs with head down, and two vertical incisions were made through the skin of the scrotum over each testicle using a scalpel blade. Once the incisions were made, testicles were exposed, spermatic cords cut, and testicles were completely removed by traction. A sham castration was performed to mimic similar handling conditions in which piglets were picked up, held in the same manner, and had pressure applied to the scrotal area by the same individual responsible for castration.
Blood was collected 24 h prior to (−24 h), 1 h (1 h), and 24 h post castration (24 h, FIG. 2). Blood samples were collected using the technique described in other studies. The orbital sinus cavity was punctured using an Excel® disposable hypodermic needle 20G (Exel International, Quebec, Canada) and deposited into a 4 ml BD® red vacutainer serum tube (Med Vet International, Mettawa, IL). All tubes were maintained in a cooler and centrifuged (2,000×g for 15 min at 4° C.) no more than eight hours post-collection to separate serum. […]
Serum cortisol concentrations were quantified using a commercially available EIA kit (Arbor Assays DetectX Cortisol EIA Kit, Product #K003). […]

[5] = Observations and limited gross necropsy of the nasal cavity after IN or IM flunixin; type: in vivo, grower pigs
Procedure: Six female Yorkshire cross grower pigs approximately 8 weeks of age with no history of flunixin administration in a 30-day period were sourced from a production farm and enrolled in the study. The pigs were determined to be healthy by veterinary physical examination and pigs initially weighed between 18.0-22.0 kg. The pigs were individually housed in climate-controlled rooms with a 12:12 light dark cycle at the North Carolina State University College of Veterinary Medicine to prevent cross contamination between pigs and damage to jugular catheters. The pens had non-slip flooring, allowed the pigs to move freely, provided enrichment, and were cleaned at least twice daily. The pigs had ad libitum access to water via a nipple drinker and were fed 0.5 quarts of Nature's Match twice daily. The pigs acclimated for 1-2 days before they were anesthetized for jugular catheter placement as described in the pilot study above and were provided approximately 24 hours to recover from anesthesia before the study began. From the time of arrival until the end of the study, the pigs were monitored at least twice daily for general appearance, attitude, appetite, and wellbeing.

[6] = cited from earlier work
[7] = intramuscular 2.2 mg/kg, six grower pigs, plasma, median
[8] = intranasal 2.2 mg/kg, six grower pigs, plasma, median
[9] = IV administration 2.2 mg/kg, piglets, Kittrell et al. (2020)
[10] = PO administration 3.3 mg/kg, piglets, Kittrell et al. (2020)
[11] = TD administration 3.3 mg/kg, piglets, Kittrell et al. (2020)

Cc1c(Nc2ncccc2C(=O)O)cccc1C(F)(F)F [flunixin meglumine]
AUCinf of IM administration ([1]; 2.2 mg/kg IM, individual grower pig (Pig # 1-6, one line per pig), unit not given): 7.63 and 6.25 and 7.82 and 8.54 and 5.29 and 4.99
AUCinf of IN administration ([1]; 2.2 mg/kg IN, individual grower pig (Pig # 1-6, one line per pig), unit not given): 2.98 and 8.90 and 7.07 and 4.98 and 4.74
AUC Extrap [1, 7]: 0.3%
λz [1, 7]: 0.1 h⁻¹
AUC Extrap [1, 8]: 0.5%
AUCinf [1, 8]: 4900 ng·h/mL
HLλz [1, 8]: 7.4 h
λz [1, 8]: 0.09 h⁻¹
label withdrawal time [2]: 12 days
numerical decrease of cortisol concentrations ([3]; FM topically 24 h prior to castration vs saline-treated piglets, not significant): more than 30%
mitigation of pain associated with castration (and tail docking) [3]: effective
mitigation of pain associated with castration (and tail docking) ([3]; listed as flunixin): more effective; also recorded: superior
total pain scores ([3]; immediately post castration, transdermal flunixin treated piglets, castrated piglets 4.9, video observation): 3.1
cortisol concentrations ([3]; intramuscular FM, 2 h post-castration, vs castrated non-treated control, Nixon 2021): decreased cortisol concentrations
rescue analgesia intervention ([3]; transdermal FM 24 h before castration, control pigs 54%): 29%
bioavailability [4]: higher bioavailability
terminal half-life [4]: longer terminal half-life
cortisol concentrations (cortisol; 1 h, sham castrated piglets (SF and SLF)): lowest cortisol concentrations
cortisol concentrations (cortisol; 1 h post-castration, castrated piglets, compared to C (saline) and CL, FM 2.2 mg/kg intranasal, buffered lidocaine intra-inguinal, listed as FM): lower cortisol concentrations; also recorded: decreased cortisol concentrations; also recorded: effectively reduce
cortisol concentrations (cortisol; 24 h post-castration, between treatments): not effective
adverse effects on the pigs ([5]; following IN or IM administration, 2.2 mg/kg): No major adverse effects
limited gross necropsy of the nasal cavity ([5]; following euthanasia, after IN administration): no negative effects
half-life [6, 9]: 7.06 h
maximum observed drug concentration [6, 9]: 12.03 µg/mL
Cmax [6, 10]: 4990 ng/mL
Tmax [6, 10]: 0.93 h
half-life [6, 10]: 11.38 h
Cmax [6, 11]: 40 ng/mL
Tmax [6, 11]: 22.50 h
half-life [6, 11]: 38.89 h
bioavailability ([6]; transdermal formulation, pigs): low bioavailability
blood concentrations ([6]; transdermal formulation, swine, Kittrell et al. (2020)): low blood concentrations
